Results: US9593363B2, “Methods and models for assessing anti-aging benefits of agents” (The Procter & Gamble Company, priority 2012, dated 2017)

Tests used:
Format in all cases: cell-based
epidermal gene panel = test: ex vivo human skin tissue culture, PCR fold change of epidermal gene panel vs untreated control; settings: 5 day time course, 33° C.; for relative fold change of epidermal gene panel (rank order): 70% relative humidity (FIG. 5A); for regulation of AQP3 / regulation of KRT10 and FLG: 70% relative humidity, tRA media applied, retinol and retinol propionate topically applied, N=6 (FIG. 5A)
Description: Referring to FIG. 5A, a bar graph illustrates the fold change (compared to an untreated control) for the epidermal gene panel of FIG. 3 following media dosing with trans-retinoic acid (tRA), retinol, or retinol propionate (RP) over a 5 day time course. […] The doses were applied over a 5 day time course during which tRA was media applied while retinol and retinol propionate were topically applied to the ex-vivo tissue samples (N=6 per material) incubated at 33° C. and 70% relative humidity. At the end of 5 days, two 4 mm punch biopsies were removed from each of the tissue samples for RNA isolation followed by PCR analysis.
The fold-increase/decrease in expression, versus an untreated control, was determined for the epidermal gene panel set forth in FIG. 3 for ex vivo tissue from a single donor over a 7 day time course incubated at 37° C. at a relative humidity of 55%. The test agents were applied topically.

[1] = test system: retinoid metabolism gene panel; test: ex vivo human skin tissue culture, PCR fold change of retinoid gene panel; settings: for regulation of CYP26A1, ALDH1A2, RDH10, RARRES1 and LRAT: by Day 7 compared to Day 5, single donor, tRA media, retinol propionate topical (FIG. 6C); for regulation of CRABP2, RARG and CEBPA / regulation of Cyp26B1: day 7, 37° C., tRA media applied, retinol propionate topically applied (FIG. 6C)
Description: FIGS. 6A, 6B, and 6C provide heat maps illustrating the fold change for the gene panel of FIG. 3 over a 7 day time course following media dosing with the tRA and retinol propionate. The cells in FIGS. 6A, 6B, and 6C are cross-hatched in the same way as the cells in FIG. 4 (i.e., see the legend provided in FIG. 4). The tRA was media applied and the retinol propionate was topically applied to the ex-vivo tissue samples (N=6 per material), which were incubated at 37° C. and 50% relative humidity. At the end of 48 hours, 5 days and 7 days, two 4 mm punch biopsies were removed from each of the tissue samples for RNA isolation followed by PCR analysis. […] These genes are all important in retinoic acid-mediated regulation of human skin growth and differentiation.
Referring again to FIGS. 6A, 6B, and 6C, the fold change data from a single donor over a 7 day time course is shown for media application of tRA and topical application of retinol propionate.
(§1) Skin preparation involved preparation of media in advance of the arrival of skin (3× media including 500 ml DMEM plus 15 ml of antibiotic and antimycotics; the 3× referred to 3-fold levels of antibiotics/antimycotics used for the initial hour of incubation; 1× Media: 500 ml DMEM plus 5 ml of antibiotic and antimycotics). The skin arrived with the dermis (fat) side down on sterile DMEM soaked gauze in a sterile culture dish. The culture dish was taped shut and in a biohazard zip-lock baggie on an ice pack in a secondary container.
(§2) On arrival, the skin was removed from the bag and soaked in 3×DMEM media and stored at 4° C. for 1 hour. After 1 hour, the skin was removed from the 3×DMEM and rinsed with sterile 1×PBS. The skin was placed in a clean culture dish containing gauze soaked with 1×DMEM. The sample was put in culture the same day as arrival; though the sample may be stored overnight at 4° C. if desired.
(§3) In preparation for culture, the following were performed on the skin tissue. On a cutting mat, the skin tissue was positioned such that the epidermis was down and the fat was exposed. The fat was removed with a disposable scalpel by carefully grasping one corner of the skin with sterile serrated forceps and scraping the fat away with the blade held at a 45 degree angle to the skin. After the fat was removed, the surgical edges were cut off with a scalpel using a scraper as a straight edge guide and to hold the skin in place. Using the scraper as a guide, the skin was cut into 1.25 cm wide strips using a ruler (such as the one on optionally provided on the cutting mat) to measure the width. The strip was rinsed in a 100 mm culture dish containing 1×PBS. The strips were cut into 1.25 cm squares and placed in a 100 mm culture dish onto 1×DMEM soaked gauze until they were put into culture 30 minutes later (with time points of 15 minutes, 30 minutes, 45 minutes, or an hour being used in various non-limiting examples).
(§4) Culturing involved putting 2.5 ml of media or treatment into each well of a 6-well tissue plate, adding one Millicell® brand culture insert to each well, and putting 100 μl of 1×DMEM on the center of each insert membrane. The skin sample squares were selected randomly and placed into each of the inserts (one skin sample per insert), on top of the media on the membrane. The plates were stored at 33° C. (though an additional non-limiting example would be 37° C. depending on the experiment endpoint). As a control, baseline tissue measurements were collected from excess waste (cryogenics were used for snap freezing). Baseline biopsy collection involved from each tissue piece; one 4 mm punch for MTT; one 4 mm punch (snap frozen in OCT) for fresh histology; One 4 mm punch was fixed in 10% formalin for paraffin embedding and two 4 mm punches (snap frozen in liquid nitrogen) for PCR.
Culture and treatment of the model comprised replicates of n=6 (though replicates of additional quantities may be used such as n=5).

dermal gene panel = test: ex vivo human skin tissue culture, PCR fold change of dermal gene panel vs untreated control
Description: The culturing temperature can also affect the pattern and magnitude of the gene regulation in ex vivo tissue samples. Referring to FIGS. 9A and 9B, heat maps illustrate the fold changes for nine dermal genes for five different donor tissue samples incubated at 33° C. for 7 days and 50% relative humidity and five different donor tissue samples incubated at 37° C. for 7 days at 50% relative humidity. The tissue samples were treated with a media supplied dose of 20 ng/ml of TGFβ-1. […]
Referring to FIG. 18, an olive oil extract, an artichoke leaf extract, and a blend of these extracts were evaluated according to methods described herein. The cells in the table of FIG. 18 are cross-hatched in the same way as the cells in the table of FIG. 4 (i.e., see the legend provided in FIG. 4). The fold-increase/decrease in expression, versus an untreated control, was determined for the dermal gene panel set forth in FIG. 3 for ex vivo tissue from a single donor over a 7 day time course. The skin samples were incubated at a temperature of 37° C. and a relative humidity of 55%. The test agents were applied topically to the skin samples. […] This is another example of identifying actives that may synergistically provide anti-aging benefit.
as §1, §2, §3
as §4, with “Baseline biopsy collection involved from each tissue piece; one 4 mm punch for MTT; one 4 mm punch (snap frozen in OCT) for fresh histology; One 4 mm punch was fixed in 10% formalin for paraffin embedding and two 4 mm punches (snap frozen in liquid nitrogen) for PCR.” left out

TGFβ-2 and TGFβ-3 = test: ex vivo human skin tissue culture, PCR fold change of TGFβ-2 and TGFβ-3; settings: media dosing, 33° C., 55% relative humidity, 4 and 7 days, N=6 (FIG. 4)
Description: FIG. 4 illustrates a heat map of the fold change of some of the genes from FIG. 3 following media dosing of ex vivo tissue samples (N=6 per material) incubated at 33° C. and 55% relative humidity with four materials over a 7 day time course. Cross-hatching is provided in some of the cells of the table in FIG. 4 to indicate statistically significant up-regulation (p value≦0.05 and p value≦0.1) and statistically significant down regulation p value≦0.05 and p value≦0.1). In addition to TGFβ-1, three exogenous materials believed to provide one or more in vivo, anti-aging skin benefits were tested. The three exogenous materials tested were a vitamin B3 compound (i.e., niacinamide), a peptide (i.e., PAL-KT brand peptide (palmitoyl-lysine-threonine)), and an olive oil extract (i.e., OLIVEM 460 brand olive oil extract). Niacinamide is believed to provide a number of cosmetic skin care benefits (see, e.g., Bissett el al. “Niacinamide: A B Vitamin that Improves Aging Facial Skin Appearance” and Draelos “Clinical Situations Conducive to Proactive Skin Health and Anti-Aging Improvement”). […]

[2] = 33° C., 7 days, 50% relative humidity, media 20 ng/ml, five donors (FIG. 9B)

Compound: CC1=C(/C=C/C(C)=C/C=C/C(C)=C/CO)C(C)(C)CCC1 [retinol]
- relative fold change of epidermal gene panel (rank order) (epidermal gene panel): tRA>retinol>retinol propionate
- regulation of AQP3 (epidermal gene panel): up-regulated
- regulation of KRT10 and FLG (epidermal gene panel): significantly down-regulated

Compound: CC1=C(/C=C/C(C)=C/C=C/C(C)=C/C(=O)O)C(C)(C)CCC1 [tRA, trans-retinoic acid]
- relative fold change of epidermal gene panel (rank order) (epidermal gene panel): tRA>retinol>retinol propionate
- regulation of AQP3 (epidermal gene panel): up-regulated
- regulation of KRT10 and FLG (epidermal gene panel): significantly down-regulated
- response of retinoid metabolism genes, tRA compared with RP ([1]; 37° C., 50% relative humidity, 48 hours to 7 days (FIGS. 6A-6C)): stronger response
- regulation of CYP26A1, ALDH1A2, RDH10, RARRES1 and LRAT [1]: down-regulated with statistical significance
- regulation of CRABP2, RARG and CEBPA ([1]; 50% relative humidity): strongly up-regulate
- regulation of Cyp26B1 ([1]; 50% relative humidity): strongly up-regulated

Compound: CCC(=O)OC/C=C(C)/C=C/C=C(C)/C=C/C1=C(C)CCCC1(C)C [retinol propionate]
- relative fold change of epidermal gene panel (rank order) (epidermal gene panel): tRA>retinol>retinol propionate
- regulation of AQP3 (epidermal gene panel): up-regulated
- regulation of KRT10 and FLG (epidermal gene panel): significantly down-regulated
- regulation of CYP26A1, ALDH1A2, RDH10, RARRES1 and LRAT [1]: down-regulated with statistical significance
- regulation of CRABP2, RARG and CEBPA ([1]; 50% relative humidity): strongly up-regulate
- regulation of Cyp26B1 ([1]; 50% relative humidity): strongly up-regulated

Compound: TGFβ-1: endogenous gene stimulative compound, known regulator of dermal matrix genes; used as positive control
- regulation of ELN and LOXL2 (dermal gene panel; [2]): did not show statistically significant up-regulation
- regulation of FN1, COL1A1 and COL3A1 (dermal gene panel; [2]): significantly up-regulated
- statistically significant up-regulation of ELN and LOXL2 across a majority of donors (dermal gene panel; 37° C., 7 days, 50% relative humidity, media 20 ng/ml, five donors (FIG. 9A)): did at 37 °C
- regulation of FN1, LOXL2, COL3A1, ELN and LOXL1 (dermal gene panel; 24 hrs, media application 20 ng/ml, single donor, 37° C., 50% relative humidity (FIG. 8A)): significantly regulated
- number of statistically significant genes up-regulated at 37° C. versus 33° C. (dermal gene panel; 7 days, 50% relative humidity, media 20 ng/ml, nine dermal genes): increased dramatically
- donor tissues with statistically significant up-regulation of at least FN1, COL1A1 and ELN (dermal gene panel; media 20 ng/ml, 11 days, 33° C., 70% relative humidity, eight donor tissues (FIG. 15)): 80%
- time of most robust response of dermal genes (dermal gene panel; media application 20 ng/ml, single donor, 37° C., 50% relative humidity, 1 to 7 days (FIG. 8A)): between Day 5 and Day 7
- regulation of FN1, COL1A1 and COL3A1 (dermal gene panel; media applied 20 ng/ml, single donor, time course 24 hrs to 7 days (FIG. 2)): increasingly up-regulated
- response of dermal genes (dermal gene panel; media supplied (FIGS. 2, 4, 7 and 8)): strong, consistent, up-regulation response

Compound: palmitoyl-lysine-threonine [peptide]
- regulation of TGFβ-2 and TGFβ-3 (TGFβ-2 and TGFβ-3): up-regulated
